Laboratory results from patent publication US20230097253A1, “NOVEL QUINAZOLINE COMPOUND AS THERAPEUTIC AGENT FOR METABOLIC DISORDERS” (BIOWAY., INC, priority 2020, published 2023).

Legend:
[1] = tested on: steatosis-induced Huh-7 cells; experiment: Expression of fat-oxidation promoting proteins (western blot) compared to existing developed materials; type: cell-based; conditions: 250 μM PA, BW-3290 0.5, 2.5, 10 μM vs comparators 1 and 10 μM, 24 hours, FIG. 4
Protocol: (§1) To induce steatosis in Huh-7 cells in each well except for control cells, the Huh-7 cells were treated with PA bound to 2% BSA at a concentration of 250 μM except for the control, and the control cells were pretreated with 2% BSA without FA.
The cells in each well were treated with the compounds of the present invention, BW-3290, 0.5 μM, 2.5 μM, and 10 μM, PF-06409577 1 μM and 10 μM, and elafibranor 1 μM and 10 μM, respectively and then cultured for 24 hours. The control cells and PA treated cells were treated with DMSO. All media were aspirated and the cells were gently washed 3 times with cold PBS.
(§2) A cold lysis buffer containing 150 mM sodium chloride (NaCl), 5 mM ethylenediaminetetraacetic acid (EDTA), pH 8.0, […] 4-(2-hydroxyethyl)-1-piperazineethanesulfonic acid (HEPES), 1% nonylphenoxypolyethoxylethanol (NP-40), aprotinin (2 μg/mL), 1 μM pepstatin A, 10 μM leupeptin, 1 mM sodium fluoride (NaF), 0.2 mM sodium orthovanadate ([…]), and 1 μM phenylmethylsulfonyl fluoride (PMSF) was added thereto.
A whole cell lysate was collected and gently pipetted at least 10 times to ensure complete lysis. The sample was incubated on ice for 20 minutes and centrifuged 4° C. at 13,000 rpm, for 20 minutes. […]
(§3) Images were acquired using an ImageQuant LAS 3000 (Fujifilm, Tokyo, Japan). Data were analyzed.

[2] = tested on: steatosis-induced Huh7 cells; experiment: Protein expression for verification of multiple mode regulator, with and without AMPK inhibitor (western blot); type: cell-based
Protocol: as §1
[…] The control cells and PA treated cells were treated with DMSO. All media were aspirated and the cells were gently washed 3 times with cold PBS.
as §2, with “2 μg/mL aprotinin,” for “aprotinin (2 μg/mL),”
A whole cell lysate was collected and gently pipetted at least 10 times to ensure complete lysis. The sample was incubated on ice for 20 minutes and centrifuged 4° C. at 13,000 rpm, for 20 minutes. The supernatant was collected, 5× sodium dodecyl sulfate (SDS) sample buffer containing 50 mM Tris-CI (pH 6.8), 2% SDS, 0.1% bromopheol blue, and 10% glycerol was added to the sample, and boiled at 95° C. for 5 minutes.
The wells of 10% SDS-polyacrylamide gel electrophoresis (SDS-PAGE) were loaded with the same amount of a protein along with the molecular weight marker. The gel was electrophoresed at 100 V for 30 minutes in an electrophoresis chamber (Bio-Rad Laboratories, Hercules, Calif., USA).
A polyvinylidene fluoride (PVDF) membrane (MilliporeSigma, Burlington, Mass., USA) was activated with methanol (MeOH) for 1 minute and washed with a transfer buffer containing 25 mM Tris, 190 mM glycine, and 20% MeOH. The gel was placed in the transfer buffer for 10 minutes.
The transfer sandwich (in the order of paper, gel, membrane, and paper) was assembled and it was checked whether no air bubbles were trapped in the transfer sandwich. […]
as §3

Which “expression of LCAD (fatty acid oxidation-related protein) compared to PF-064099577 and elafibranor” value [1] does the source give for `CC(C)C(Nc1ncnc2nc[nH]c12)c1nc2cccc(Cl)c2c(=O)n1-c1ccccc1` (centres unmarked) [BW-3290, 2-(1-((7H-purin-6-yl)amino)-2-methylpropyl)-5-chloro-3-phenylquinazolin-4(3H)-one] here?
Its value is “same or higher effect of fatty acid degradation”.

And the “p-ACC expression (inhibition of fat accumulation) compared to PF-064099577 and elafibranor” value [1]?
The value was “same or higher effect of inhibiting fat accumulation”.

What about the “activity of SIRT1 and AMPK (p-AMPK, p-ACC) when AMPK activity is inhibited” value ([2]; 250 μM PA, 10 μM compound C (AMPK inhibitor), 10 and 20 μM BW-3290, 24 hours, FIG. 15) of the same molecule?
Its value is “increases the activity of SIRT1 and AMPK”.

What about the “AMPK protein expression level” value ([2]; 0.5, 2.5, 10 μM, FIG. 13) of the same molecule?
The value was “increase in a concentration-dependent manner”.

What about the “SIRT1 protein expression level” value ([2]; 0.5, 2.5, 10 μM, FIG. 13) of the same molecule?
Its value is “increase in a concentration-dependent manner”.
